Test results taken from ChEMBL document CHEMBL2434862, “4-Phenylbutyric acid protects against neuronal cell death by primarily acting as a chemical chaperone rather than histone deacetylase inhibitor” (Bioorg Med Chem Lett, 2013).
Calls of active or inactive are those of the source. The rule behind the calls is not given here.

Assays:
[1] = target: Histone deacetylase (Homo sapiens) (UniProt Q13547+O15379+Q9UBN7+Q92769+Q9UQL6+Q8WUI4+Q9BY41+Q96DB2+P56524+Q9UKV0+Q969S8); settings: SH-SY5Y, at 3 mM
Description: Inhibition of HDAC in human SH-SY5Y cells under ER stress assessed as acetylated H3 levels at 3 mM after 48 hrs by Western blot analysis in presence of tunicamycin

[2] = Chemical chaperone activity assessed as suppression of alpha-lactalbumin-bovine serum albumin aggregation at 3 mM by turbidity assay; format: functional

Row | SMILES | inhibition [1] | Activity [2]
1 | O=C(O)CCCc1ccc([N+](=O)[O-])cc1 | Active | –
2 | COc1ccc(CCCC(=O)O)cc1 | Active | –
3 | O=C(O)CCCc1ccccc1 | Active | Active
